This is an account of results in US20120046321A1, “METHODS OF TREATING ATRIAL FIBRILLATION WITH P38 INHIBITOR COMPOUNDS” (INTERMUNE, INC., priority 2005, published 2012).

One assay deals with connexin 43 (Cx43). The assay is described as follows: Immunofluorescent distribution of gap junction protein in LA. The conditions noted are these: CHF and CHF+PFD groups. It is filed as in vivo, canine. On the procedure: (§1) The distribution of gap junction proteins connexin 43 (Cx43) and connexin 40 (Cx40) in atrial tissue was also studied. Atrial specimens were incubated with mouse monoclonal antibody against Cx40 and rabbit polyclonal antibody against Cx43 (Dako) overnight at 4° C. Subsequently, incubation with FITC-labeled goat anti-rabbit (for Cx43) and Texas Red-labeled donkey anti-mouse (for Cx40) antibodies (Jackson ImmunoResearch Laboratories, West Grove, Pa.) was performed. The specimens were processed and analyzed with fluorescent microscopy.

The next assay has as its system connexin 40 (Cx40). The assay is described as above. It is filed as in vivo, canine. The conditions noted are these: CHF and CHF+PFD groups. On the procedure: as §1

As for `Cc1ccc(=O)n(-c2ccccc2)c1` [PFD, 5-methyl-1-phenyl-2-(1H)-pyridone], the “Spatial distribution of Cx43 in LA, treated vs untreated” value in the assay with connexin 43 (Cx43) is on record as “did not appear markedly different”. Further, in the assay on connexin 40 (Cx40), the “Spatial distribution of Cx40 in LA, treated vs untreated” value is “did not appear markedly different”.
